The assay deals with T1, human recombinant P2X7 receptors (Homo sapiens, UniProt Q99572).
T1 construct: expressed in transfected cells
T1 sequence (Q99572 1-595): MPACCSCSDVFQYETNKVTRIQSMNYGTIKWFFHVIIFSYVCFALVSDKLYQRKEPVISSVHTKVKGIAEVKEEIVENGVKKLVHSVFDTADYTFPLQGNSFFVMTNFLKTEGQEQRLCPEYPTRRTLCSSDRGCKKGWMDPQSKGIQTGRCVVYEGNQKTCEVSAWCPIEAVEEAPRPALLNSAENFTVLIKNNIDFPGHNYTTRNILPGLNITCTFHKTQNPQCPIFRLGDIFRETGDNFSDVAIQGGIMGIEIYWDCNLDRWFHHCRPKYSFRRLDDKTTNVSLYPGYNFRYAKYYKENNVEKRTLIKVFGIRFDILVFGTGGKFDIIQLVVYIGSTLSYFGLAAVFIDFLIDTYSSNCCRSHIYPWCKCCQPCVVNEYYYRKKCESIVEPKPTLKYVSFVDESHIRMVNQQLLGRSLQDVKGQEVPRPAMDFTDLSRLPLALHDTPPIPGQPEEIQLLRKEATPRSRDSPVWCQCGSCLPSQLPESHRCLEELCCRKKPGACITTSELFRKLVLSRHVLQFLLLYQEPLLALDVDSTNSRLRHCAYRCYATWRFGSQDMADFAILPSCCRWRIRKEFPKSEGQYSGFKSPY
Put plainly: Ethidium Accumulation Assay 1 (HEK293 cells, ATP-induced ethidium uptake). Format: cell-based. To be noted: HEK293 cells expressing human P2X7; 1 mM ATP; sometimes mean of more than one measurement; read-out: Assay 1 (antagonist pIC50 for blocking ATP responses) (converted). As to the method:
Eithidium Accumulation Assay 1
Studies were performed using NaCl assay buffer of the following composition: 140 mM NaCl, 10 mM HEPES [4-(2-hydroxyethyl)-1-piperazine-1-ethanesulfonic acid], 5 mM N-methyl-D-glucamine, 5.6 mM KCl, 10 mM D-glucose, 0.5 mM CaCl2 (pH 7.4).
Human Embryonic Kidney (HEK) 293 cells, stably expressing human recombinant P2X7 receptors, were grown in poly-D-lysine pretreated 96 well plates for 18-24 hours.
The cells were washed twice with 350 μl of the assay buffer, before addition of 50 μl of the assay buffer containing the putative P2X7 receptor antagonist compound. (A small amount of dimethyl sulfoxide, for initially dissolving the compound, is optionally used and present in this 50 μl test compound sample.) The cells were then incubated at room temperature (19-21° C.) for 30 min before addition of ATP and ethidium (100 μM final assay concentration). The ATP concentration was chosen to be close to the EC80 for the receptor type and was 1 mM for studies on the human P2X7 receptor. Incubations were continued for 8 or 16 min and were terminated by addition of 25 μl of 1.3M sucrose containing 4 mM of the P2X7 receptor antagonist Reactive Black 5 (Aldrich). […] Antagonist pIC50 values for blocking ATP responses were determined using iterative curve fitting techniques.

`O=C(c1cccc(Cl)c1Cl)N1CCn2c(nnc2-c2cccc(F)n2)C1` [Example 55, 7-[(2,3-dichlorophenyl)carbonyl]-3-(6-fluoro-2-pyridinyl)-5,6,7,8-tetrahydro[1,2,4]triazolo [4,3-a]pyrazine]: the IC50 was < 100 nM.
The same measure for `O=C(c1ccc(F)cc1F)N1CCn2c(nnc2-c2ccccn2)C1` [Example 78, 7-[(2,4-difluorophenyl)carbonyl]-3-(2-pyridinyl)-5,6,7,8-tetrahydro[1,2,4]triazolo [4,3-a]pyrazine]: < 100 nM; for `O=C(c1ccccc1Cl)N1CCn2c(nnc2-c2ccncn2)C1` [Example 116, 7-[(2-chlorophenyl)carbonyl]-3-(4-pyrimidinyl)-5,6,7,8-tetrahydro[1,2,4]triazolo[4,3-a]pyrazine]: < 501 nM; for `O=C(c1ccc(Cl)cc1Cl)N1CCn2c(nnc2-c2ncccc2F)C1` [Example 93]: < 100 nM.
For `O=C(c1cccc(C(F)(F)F)c1Cl)N1CCn2c(nnc2C2CCCC2)C1` [Example 139, 7-{[2-chloro-3-(trifluoromethyl)phenyl]carbonyl}-3-cyclopentyl-5,6,7,8-tetrahydro[1,2,4]triazolo[4,3-a]pyrazine] the value was < 100 nM; for `Cc1cc(-c2nnc3n2CCN(C(=O)c2cccc(C(F)(F)F)c2Cl)C3)no1` [Example 36, 7-{[2-chloro-3-(trifluoromethyl)phenyl]carbonyl}-3-(5-methyl-3-isoxazolyl)-5,6,7,8-tetrahydro[1,2,4]triazolo [4,3-a]pyrazine], < 100 nM.
For `O=C(c1ccc(F)c(C(F)(F)F)c1)N1CCn2c(nnc2-c2cnccn2)C1` [Example 108, 7-{[4-fluoro-3-(trifluoromethyl)phenyl]carbonyl}-3-(2-pyrazinyl)-5,6,7,8-tetrahydro[1,2,4]triazolo [4,3-a]pyrazine] the value was < 100 nM.
On to `O=C(c1cccc(F)c1F)N1CCn2c(nnc2-c2ccccn2)C1` [Example 88, 7-[(2,3-difluorophenyl)carbonyl]-3-(2-pyridinyl)-5,6,7,8-tetrahydro[1,2,4]triazolo [4,3-a]pyrazine], for which the IC50 is < 100 nM.
For `Cc1cccnc1-c1nnc2n1CCN(C(=O)c1cccc(C(F)(F)F)c1Cl)C2` [Example 28, 7-{[2-chloro-3-(trifluoromethyl)phenyl]carbonyl}-3-(3-methyl-2-pyridinyl)-5,6,7,8-tetrahydro[1,2,4]triazolo [4,3-a]pyrazine] the value was < 10 nM.
`O=C(c1ccc(F)cc1Cl)N1CCn2c(Br)nnc2C1` [Example 109, 3-Bromo-7-[(2-chloro-4-fluorophenyl)carbonyl]-5,6,7,8-tetrahydro[1,2,4]triazolo[4,3-a]pyrazine]: the IC50 was < 501 nM.
The same measure for `COc1cccc(-c2nnc3n2CCN(C(=O)c2ccc(F)cc2Cl)C3)c1` [Example 125, 7-[(2-chloro-4-fluorophenyl)carbonyl]-3-[3-(methyloxy)phenyl]-5,6,7,8-tetrahydro[1,2,4]triazolo[4,3-a]pyrazine]: < 100 nM; for `Cc1ncccc1-c1nnc2n1CCN(C(=O)c1cccc(C(F)(F)F)c1Cl)C2` [Example 65, 7-{[2-chloro-3-(trifluoromethyl)phenyl]carbonyl}-3-(2-methyl-3-pyridinyl)-5,6,7,8-tetrahydro[1,2,4]triazolo [4,3-a]pyrazine]: < 100 nM; for `Cn1ccc(-c2nnc3n2CCN(C(=O)c2cccc(C(F)(F)F)c2Cl)C3)n1` [Example 27, 7-{[2-chloro-3-(trifluoromethyl)phenyl]carbonyl}-3-(1-methyl-1H-pyrazol-3-yl)-5,6,7,8-tetrahydro[1,2,4]triazolo [4,3-a]pyrazine]: < 10 nM.
Regarding `O=C(c1cccc(Cl)c1Cl)N1CCn2c(nnc2-c2ccc(F)cn2)C1` [Example 54, 7-[(2,3-dichlorophenyl)carbonyl]-3-(5-fluoro-2-pyridinyl)-5,6,7,8-tetrahydro[1,2,4]triazolo [4,3-a]pyrazine], the IC50 is < 10 nM.
The same measure for `O=C(c1ccc(F)cc1Cl)N1CCn2c(nnc2-c2cccc(F)c2F)C1` [Example 131, 7-[(2-chloro-4-fluorophenyl)carbonyl]-3-(2,3-difluorophenyl)-5,6,7,8-tetrahydro[1,2,4]triazolo[4,3-a]pyrazine]: < 100 nM; for `O=C(c1ccc(Cl)cc1Cl)N1CCn2c(nnc2-c2ccncn2)C1` [Example 102, 7-[(2,4-dichlorophenyl)carbonyl]-3-(4-pyrimidinyl)-5,6,7,8-tetrahydro[1,2,4]triazolo [4,3-a]pyrazine]: < 100 nM; for `O=C(c1ccc(Cl)cc1C(F)(F)F)N1CCn2c(nnc2-c2cnccn2)C1` [Example 142, 7-{[4-chloro-2-(trifluoromethyl)phenyl]carbonyl}-3-(2-pyrazinyl)-5,6,7,8-tetrahydro[1,2,4]triazolo[4,3-a]pyrazine]: < 100 nM.
On to `O=C(c1ccc(F)cc1Cl)N1CCn2c(nnc2-c2ccccc2O)C1` [Example 128, 2-{7-[(2-chloro-4-fluorophenyl)carbonyl]-5,6,7,8-tetrahydro[1,2,4]triazolo[4,3-a]pyrazin-3-yl}phenol], for which the IC50 is < 501 nM.
Regarding `O=C(c1c(Cl)cc(Cl)cc1Cl)N1CCn2c(Br)nnc2C1` [Example 8, 3-bromo-7-[(2,4,6-trichlorophenyl)carbonyl]-5,6,7,8-tetrahydro[1,2,4]triazolo [4,3-a]pyrazine], the IC50 is < 501 nM.
The same measure for `O=C(c1cccc(C(F)(F)F)c1Cl)N1CCn2c(nnc2-c2ccc[nH]2)C1` [Example 38, 7-{[2-chloro-3-(trifluoromethyl)phenyl]carbonyl}-3-(1H-pyrrol-2-yl)-5,6,7,8-tetrahydro[1,2,4]triazolo [4,3-a]pyrazine]: < 10 nM; for `Cn1cccc1-c1nnc2n1CCN(C(=O)c1ccc(F)cc1Cl)C2` [Example 82, -[(2-chloro-4-fluorophenyl)carbonyl]-3-(1-methyl-1H-pyrrol-2-yl)-5,6,7,8-tetrahydro[1,2,4]triazolo [4,3-a]pyrazine]: < 100 nM.
The same measure for `O=C(c1cccc(Cl)c1Cl)N1CCn2c(Br)nnc2C1` [Example 6, 3-bromo-7-[(2,3-dichlorophenyl)carbonyl]-5,6,7,8-tetrahydro[1,2,4]triazolo [4,3-a]pyrazine]: < 100 nM.
For `O=C(c1cccc(C(F)(F)F)c1Cl)N1CCn2c(nnc2N2CCCCC2)C1` [Example 23, 7-{[2-chloro-3-(trifluoromethyl)phenyl]carbonyl}-3-(1-piperidinyl)-5,6,7,8-tetrahydro[1,2,4]triazolo [4,3-a]pyrazine], the IC50 was < 100 nM.
The same measure for `O=C(c1ccccc1C(F)(F)F)N1CCn2c(nnc2-c2ccccn2)C1` [Example 122, 3-(2-pyridinyl)-7-{[2-(trifluoromethyl)phenyl]carbonyl}-5,6,7,8-tetrahydro[1,2,4]triazolo[4,3-a]pyrazine]: < 100 nM.
As for `O=C(c1cccc(C(F)(F)F)c1Cl)N1CCn2c(nnc2-c2cscn2)C1` [Example 42, 7-{[2-chloro-3-(trifluoromethyl)phenyl]carbonyl}-3-(1,3-thiazol-4-yl)-5,6,7,8-tetrahydro[1,2,4]triazolo[4,3-a]pyrazine], the IC50 is < 10 nM.
In the case of `O=C(c1ccc(F)cc1Cl)N1CCn2c(nnc2-c2ncccn2)C1` [Example 47, 7-[(2-chloro-4-fluorophenyl)carbonyl]-3-(2-pyrimidinyl)-5,6,7,8-tetrahydro[1,2,4]triazolo [4,3-a]pyrazine], the IC50 is < 10 nM.
On to `Cc1cccc(-c2nnc3n2CCN(C(=O)c2cccc(Cl)c2Cl)C3)n1` [Example 69, 7-[(2,3-dichlorophenyl)carbonyl]-3-(6-methyl-2-pyridinyl)-5,6,7,8-tetrahydro[1,2,4]triazolo [4,3-a]pyrazine], for which the IC50 was < 10 nM.
As to `O=C(c1ccc(F)cc1Cl)N1CCn2c(nnc2-c2cccc(F)c2)C1` [Example 123, 7-[(2-chloro-4-fluorophenyl)carbonyl]-3-(3-fluorophenyl)-5,6,7,8-tetrahydro[1,2,4]triazolo[4,3-a]pyrazine], the IC50 is < 100 nM.
With `O=C(c1cccc(C(F)(F)F)c1Cl)N1CCn2c(nnc2-c2ccccc2O)C1` [Example 138, 2-(7-{[2-chloro-3-(trifluoromethyl)phenyl]carbonyl}-5,6,7,8-tetrahydro[1,2,4]triazolo[4,3-a]pyrazin-3-yl)phenol], the IC50 is < 10 nM.
